Here are results for six molecules from US20120295887A1, “PHARMACEUTICALLY ACCEPTABLE SALTS OF PYRROLO-NITROGENOUS HETEROCYCLIC DERIVATIVES, PREPARATION METHOD AND MEDICAL USE THEREOF” (SHANGHAI HENGRUI PHARMACEUTICAL CO., LTD., priority 2010, published 2012).

Data set [1] can be described thus: Solubility assay in physiological saline. In kind it is physicochemical. The following applies: conclusion in words. The protocol:
According to the conventional solubility measurement, the solubility of the compound of formula (I) and salts thereof were determined in physiological saline.

The nature of data set [2]: Pharmacokinetics assay in rats (intragastric and tail vein administration, plasma LC/MS/MS). Format: in vivo. The following applies: for F (oral absolute bioavailability) / bioavailability: intragastric 10 mg/kg (calculated by the base part), from AUC0-t vs tail vein injection; for Cmax: 0.5% CMC-Na suspension; for bioavailability: read-out: F (oral absolute bioavailability). The protocol:
The rats were used as experimental animals. The compound of formula (I) and other salts thereof were administrated intragastrically, the maleate of the compound of formula (I) was injected into the tail vein to determine the drug concentration in plasma at different time points by LC/MS/MS method. The pharmacokinetic behavior, characteristics and the oral absolute bioavailability of the compounds in the present invention were studied and evaluated in rats.
The compound of formula (I), compounds of Example 1˜5.
28 healthy adult SD rats, male and female in half, were divided into 7 groups (4 rats in each group) and purchased from SINO-BRITSH SIPPR/BK LAB. ANIMAL LTD., CO, License number: SCXK (Shanghai) 2008-0016.
The intravenous injection administration group: the suitable amount of compounds were weighted, added into physiological saline and diluted to the final volume. The sample concentration was 1.0 mg/mL.
The intragastrical administration group: the suitable amount of compounds were weighted and added into 0.5% CMC-Na to prepare 1.0 mg/mL suspension by using ultrasound device. The sample should be prepared freshly away from light at the time of use.
28 healthy adult SD rats, male and female in half, were divided into 7 groups (4 rats in each group). After an overnight fast, the compound of Example 1, at a dose of 10 mg/kg (calculated by the base part), at a volume of 10 mL/kg, was administered intragastrically or injected into the tail vein.
For the intravenous injection administration group, blood samples (0.2 mL) were taken from orbital sinus at pre administration and at 2 minutes, 15 minutes, 30 minutes, 1.0 hour, 2.0 hours, 4.0 hours, 6.0 hours, 8.0 hours, 12.0 hours, 24.0 hours and 36.0 hours post administration, stored in heparinized tubes and centrifuged for 10 minutes at 3,500 rpm. The plasma samples were stored at −20° C.
For the intragastrical administration group, blood samples were taken at pre administration and at 0.5, 1.0, 2.0, 3.0, 4.0, 6.0, 8.0, 12.0, 24.0 and 36.0 hours post administration. The method to treat the samples was the same with the intravenous injection administration group. The rats were fed 2 hours after administration.
25 μL of rat plasmas taken at various time points after administration were mixed with 20 μL of internal standard solution and […] of methanol for 2 minutes by using a vortexer and the mixture was centrifuged for 10 minutes at 16,000 rpm. 10 pt of the supernatant was analyzed by LC-MS/MS.
25 μL of rat blank plasmas were mixed with a series of standard solutions respectively to obtain plasma concentration of 1.00, 2.00, 5.00, 25.0, 100, 500, 2000 and 5000 ng/mL. 20 μL of internal standard solution and 150 μL of methanol were added and then the mixture was operated according to “plasma sample pretreatment” method. Plasma concentration was used as the abscissa, the ratio of chromatographic peak area between the sample and internal standard was used as the ordinate, the linear regression was carried out by the weighted least square method (w=1/x^2) to obtain the typical standard curve equation.
Compartment model fitting was carried out on the pharmacokinetic behavior of the tested compounds to calculate the main pharmacokinetic parameters, wherein the measured values were taken for Cmax and tmax. Oral absolute bioavailability was calculated according to AUC0-t after intragastrical administration and intravenous injection at tail vein.

A short description of data set [3]: Solubility in conventional solvents (inventor's finding). The following applies: in words. Format: physicochemical. The source says:
It is necessary to develop new forms of the compound of formula (I) to improve its solubility and pharmacokinetic absorption, which can be used in conventional preparation of dosage forms.

Setting [4] is: SD rats, intragastric 10 mg/kg, maleate.
Where [5] appears, read: both sexes, Sprague-Dawley (SD), rat, plasma, iv, 10 mg/kg, Vein (tail vein injection) 10 mg/kg, read-out: MRT.
The mark [6] stands for this setting: both sexes, Sprague-Dawley (SD), rat, plasma, po, 10 mg/kg, intragastric 10 mg/kg.
[7] abbreviates: both sexes, Sprague-Dawley (SD), rat, plasma, po, 10 mg/kg.
Setting [8] is: both sexes, Sprague-Dawley (SD), rat, plasma, po, 10 mg/kg, intragastric 10 mg/kg, read-out: Cmax.
The mark [9] stands for this setting: both sexes, Sprague-Dawley (SD), rat, plasma, po, 10 mg/kg, intragastric 10 mg/kg, read-out: AUC0-t.
Where [10] appears, read: both sexes, Sprague-Dawley (SD), rat, plasma, po, 10 mg/kg, intragastric 10 mg/kg, read-out: MRT.
[11] abbreviates: both sexes, Sprague-Dawley (SD), rat, plasma, po, 10 mg/kg, intragastric 10 mg/kg, read-out: Tmax.
Where [12] appears, read: both sexes, Sprague-Dawley (SD), rat, plasma, iv, Vein (tail vein injection) 10 mg/kg.
The mark [13] stands for this setting: both sexes, Sprague-Dawley (SD), rat, plasma, iv, Vein (tail vein injection) 10 mg/kg in physiological saline, read-out: AUC0-t.
Setting [14] is: SD rats, Vein (tail vein injection) 10 mg/kg.

Counter-ions that a name gives are not always drawn. Like-named read-outs stand apart in the source and are kept apart here.

With `Cc1c(/C=C2\C(=O)Nc3ccc(F)cc32)[nH]c2c1C(=O)N(C[C@H](O)CN1CCOCC1)CCC2` [Example 1, (R,Z)-2-(5-fluoro-2-oxo-1,2-dihydro-indol-3-ylidenemethyl)-5-(2-hydroxy-3-morpholin-4-yl-propyl)-3-methyl-5,6,7,8-tetrahydro-1H-pyrrolo[3,2-c]azepin-4-one maleate], the “solubility compared with free base and other salts of the compound of formula (I)” value in data set [1] was “Conclusion: Compared with free base and other salts of the compound of formula (I), the solubility of maleate of the compound of formula (I) has significantly improved”. For the same molecule, the “F (oral absolute bioavailability)” value in data set [2] (SD rats, maleate) is recorded as 48.2%. For the same molecule, in data set [2] (setting [4]), the maximum concentration (Cmax) was found to be 950 ± 370 ng/mL, the AUC(0-t) was 7770 ± 2990 ng·h/mL, the MRT was determined as 6.66 ± 2.05 h and the time of peak concentration (Tmax) is on record as 5.75 ± 2.06 h. Also, the t1/2 in data set [2] (setting [4]) is 3.01 ± 0.60 h.
`Cc1c(/C=C2\C(=O)Nc3ccc(F)cc32)[nH]c2c1C(=O)N(C[C@H](O)CN1CCOCC1)CCC2.Cl` [Example 5, (R,Z)-2-(5-fluoro-2-oxo-1,2-dihydro-indol-3-ylidenemethyl)-5-(2-hydroxy-3-morpholin-4-yl-propyl)-3-methyl-5,6,7,8-tetrahydro-1H-pyrrolo[3,2-c]azepin-4-one hydrochloride]: the half-life is 5.97 ± 2.5 h in data set [2] (both sexes, Sprague-Dawley (SD), rat, plasma, iv, 10 mg/kg, Vein (tail vein injection) 10 mg/kg) and 3.6 ± 0.52 h in data set [2] (setting [6]). Besides, the AUC(0-t) is 16100 ± 3970 ng·h/mL in data set [2] (both sexes, Sprague-Dawley (SD), rat, plasma, iv, 10 mg/kg, Vein (tail vein injection) 10 mg/kg in physiological saline, read-out: AUC0-t) and 4070 ± 1630 ng·h/mL in data set [2] (setting [9]). The results for the mean residence time (MRT) in data set [2] (setting [5]) and in data set [2] (setting [10]) were 1.4 ± 0.35 h and 6.8 ± 1.58 h, respectively. In data set [2] (setting [6]), this molecule had a CL/F of 33.8 mL/min/kg. In data set [2] (setting [7]), the bioavailability was 25.2%. For the same molecule, the Cmax in data set [2] (setting [8]) was found to be 500 ± 100 ng/mL. The time to peak (Tmax) in data set [2] (setting [11]) was 4.25 ± 2.06 h.
For the molecule `CC(O)C(=O)O.Cc1c(/C=C2\C(=O)Nc3ccc(F)cc32)[nH]c2c1C(=O)N(C[C@H](O)CN1CCOCC1)CCC2` [Example 3, (R,Z)-2-(5-fluoro-2-oxo-1,2-dihydro-indol-3-ylidenemethyl)-5-(2-hydroxy-3-morpholin-4-yl-propyl)-3-methyl-5,6,7,8-tetrahydro-1H-pyrrolo[3,2-c]azepin-4-one lactate], the values for the MRT in data set [2] (setting [5]) and in data set [2] (setting [10]) were 1.4 ± 0.35 h and 6.28 ± 1.56 h, respectively. Further, the half-life in data set [2] (setting [12]) is 5.97 ± 2.5 h; in data set [2] (setting [6]), 3.06 ± 1.21 h. Besides, the AUC(0-t) came to 16100 ± 3970 ng·h/mL in data set [2] (setting [13]) and 5900 ± 3350 ng·h/mL in data set [2] (setting [9]). The molecule further showed a CL/F in data set [2] (setting [6]) of 27.3 mL/min/kg. In addition, the bioavailability in data set [2] (setting [7]) is 36.6%. Besides, the Cmax in data set [2] (setting [8]) is 810 ± 450 ng/mL. Moreover, the Tmax in data set [2] (setting [11]) was 2.5 ± 1 h.
As to `Cc1c(/C=C2\C(=O)Nc3ccc(F)cc32)[nH]c2c1C(=O)N(C[C@H](O)CN1CCOCC1)CCC2.O=C(O)C[C@H](O)C(=O)O` [Example 2, (R,Z)-2-(5-fluoro-2-oxo-1,2-dihydro-indol-3-ylidenemethyl)-5-(2-hydroxy-3-morpholin-4-yl-propyl)-3-methyl-5,6,7,8-tetrahydro-1H-pyrrolo[3,2-c]azepin-4-one malate], the MRT in data set [2] (setting [5]) was 1.4 ± 0.35 h; in data set [2] (setting [10]) it was 4.29 ± 1.87 h. Moreover, the half-life in data set [2] (setting [12]) is 5.97 ± 2.5 h; in data set [2] (setting [6]) it was 3.13 ± 0.97 h. In addition, the AUC(0-t) amounted to 16100 ± 3970 ng·h/mL in data set [2] (setting [13]) and 4900 ± 2790 ng·h/mL in data set [2] (setting [9]). In addition, the apparent clearance (CL/F) in data set [2] (setting [6]) is 29.8 mL/min/kg. For the same molecule, the bioavailability in data set [2] (setting [7]) is 30.4%. Moreover, the Cmax in data set [2] (setting [8]) stood at 850 ± 390 ng/mL. Besides, the Tmax in data set [2] (setting [11]) came to 1.75 ± 1.66 h.
For `Cc1c(/C=C2\C(=O)Nc3ccc(F)cc32)[nH]c2c1C(=O)N(C[C@H](O)CN1CCOCC1)CCC2` [The compound of formula (I), (R,Z)-2-(5-fluoro-2-oxo-1,2-dihydro-indol-3-ylidenemethyl)-5-(2-hydroxy-3-morpholin-4-yl-propyl)-3-methyl-5,6,7,8-tetrahydro-1H-pyrrolo[3,2-c]azepin-4-one], in data set [2] (setting [14]), the mean residence time MRT was 1.40 ± 0.35 h and the t1/2 worked out at 5.97 ± 2.50 h. Moreover, in data set [2] (SD rats, Vein (tail vein injection) 10 mg/kg in physiological saline), the AUC(0-t) is 16120 ± 3970 ng·h/mL. In data set [2] (SD rats, intragastric 10 mg/kg), the AUC(0-t) came to 4490 ± 2790 ng·h/mL, the MRT was 5.24 ± 2.23 h, the time of peak concentration (Tmax) turned out to be 2.00 ± 1.41 h and the t1/2 is 3.31 ± 0.57 h. Also, in data set [2] (SD rats, intragastric 10 mg/kg), the Cmax was 640 ± 240 ng/mL. The “F (oral absolute bioavailability)” value in data set [2] (SD rats) is 27.9%. For the same molecule, the “solubility in conventional solvents” value in data set [3] is “poorly soluble”.
For `Cc1c(/C=C2\C(=O)Nc3ccc(F)cc32)[nH]c2c1C(=O)N(C[C@H](O)CN1CCOCC1)CCC2` [Example 4, (R,Z)-2-(5-fluoro-2-oxo-1,2-dihydro-indol-3-ylidenemethyl)-5-(2-hydroxy-3-morpholin-4-yl-propyl)-3-methyl-5,6,7,8-tetrahydro-1H-pyrrolo[3,2-c]azepin-4-one mesylate], the “F (oral absolute bioavailability)” value in data set [2] (SD rats, mesylate) is 45.3%. Moreover, the Tmax in data set [2] (SD rats, intragastric 10 mg/kg, mesylate) is on record as 3.75 ± 1.71 h. Also, the MRT in data set [2] (setting [5]) is 1.4 ± 0.35 h; in data set [2] (setting [10]) it was 6.68 ± 1.58 h. For the same molecule, the half-life was 5.97 ± 2.5 h in data set [2] (setting [12]) and 3.41 ± 0.85 h in data set [2] (setting [6]). In addition, the AUC(0-t) in data set [2] (setting [13]) is 16100 ± 3970 ng·h/mL; in data set [2] (setting [9]), 7300 ± 5870 ng·h/mL. In data set [2] (setting [6]), this molecule showed an apparent clearance (CL/F) of 24.8 mL/min/kg. Also, the Cmax in data set [2] (setting [8]) came to 770 ± 390 ng/mL.

A word on the Cmax: it is the highest concentration seen after dosing. By MRT is commonly meant a mean duration of stay, worked out from the concentration-time curve. One may read the Tmax as the time from dosing to the highest level. As usually defined, the half-life is how long it takes for the measured level to halve. A word on the CL/F: it is the apparent clearance, not corrected for the fraction that reaches the circulation. One may read the bioavailability as the share of a dose that reaches the circulation, judged against a reference dose that is usually intravenous.
